These are literature values, as cited in patent publication US4604234A, “Protein having cell growth stimulating action, composition thereof and method for producing the same” (priority 1983, dated 1986).

Each structure is given as a SMILES string.

The data set deals with human cutaneous fibroblasts. The following applies: cited from earlier work; for growth inhibition of incubated human cutaneous fibroblasts: listed in descending order of inhibition.

As for `CCC(=O)OCC(=O)[C@@]1(OC(=O)CC)[C@@H](C)C[C@H]2[C@@H]3CCC4=CC(=O)C=C[C@]4(C)[C@@]3(F)[C@@H](O)C[C@@]21C` [betamethasonedipropionate], the “growth inhibition of incubated human cutaneous fibroblasts” value (“growth inhibition” below) is recorded as “inhibited”. Turning to `CCC(=O)O[C@]1(C(=O)CCl)[C@@H](C)C[C@H]2[C@@H]3CCC4=CC(=O)C=C[C@]4(C)[C@@]3(F)[C@@H](O)C[C@@]21C` [clobetasol-17-propionate], the “growth inhibition” value is recorded as “inhibited”. In addition, the “denaturation of human fibroblastic nuclei and protoplasms” value (25 μg/ml) is “caused human fibroblastic nuclei and protoplasms to denature”. On to `CCCC(=O)O[C@]1(C(=O)CO)CC[C@H]2[C@@H]3CCC4=CC(=O)CC[C@]4(C)[C@H]3[C@@H](O)C[C@@]21C` [hydrocortisone-butylate], for which the “growth inhibition” value is on record as “inhibited”.
